Experimental data: PubChem BioAssay (NCI)
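Following 48 hours of exposure in 96-well plates, responses at five concentrations were used to interpolate endpoints linearly. TGI marks complete inhibition of growth.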

Experiments:
Experiment in all cases: NCI anticancer screen, dose series, 48 h
DLD-1 colon = tested on: DLD-1 colon
DMS 273 small cell lung = tested on: DMS 273 small cell lung
KM20L2 colon = tested on: KM20L2 colon
RXF-631 renal = tested on: RXF-631 renal
SNB-78 CNS = tested on: SNB-78 CNS
XF 498 CNS = tested on: XF 498 CNS
HOP-18 NSCLC = tested on: HOP-18 NSCLC

For `Cc1cc2c(=O)c3ccc(Cl)cc3[nH]c2c(C(N)=O)c1C`, the TGI (DLD-1 colon) was over 100 µM, the TGI (DMS 273 small cell lung) was over 100 µM and the TGI (KM20L2 colon) was over 100 µM. The TGI (RXF-631 renal) was over 100 µM, the TGI (SNB-78 CNS) was over 100 µM and the TGI (XF 498 CNS) was over 100 µM.

Compound `CCC1=C(C[C@H]2NCCc3cc(OC)c(OC)cc32)C[C@H]2c3cc(OC)c(OC)cc3CCN2C1` has a TGI (DLD-1 colon) of 0.349 µM, a TGI (DMS 273 small cell lung) of 0.109 µM and a TGI (HOP-18 NSCLC) of over 100 µM. It also gave a TGI (KM20L2 colon) of 0.14 µM, a TGI (RXF-631 renal) of 1.43 µM and a TGI (SNB-78 CNS) of 1.32 µM.

With `O=C1c2ccncc2C(=O)c2c(O)ccc(O)c21` the TGI (HOP-18 NSCLC) was 25.5 µM, the TGI (KM20L2 colon) was 8.12 µM and the TGI (XF 498 CNS) was 15.2 µM.
